# Data published in paper PMC5120204, “Identification of an orally active small-molecule PTHR1 agonist for the treatment of hypoparathyroidism” (Nature Communications, 2016).
# Assays:
# [1] = test system: OVX rats; test: Repeated administration study in OVX rats; format: in vivo, rat
# Method: OVX was carried out in 32-week-old female Crl:CD (SD) rats (Charles River Laboratories). Twelve weeks after surgery, lumbar vertebral BMD (L3–L5) was measured in vivo by dual-energy X-ray absorptiometry (DXA) using a DCS-600EX-IIIR bone densitometer (Hitachi Aloka Medical), and the rats were divided into five groups, each with a similar mean value of BMD and body weight. Sample sizes were determined based on previous experiments with hPTHs and a published study with ibandronate and eldecalcitriol in our laboratories[42] (n=7–10). Then, OVX rats were treated once daily intravenously (vehicle or PCO371 at 3 or 10 mg kg^−1) or orally (vehicle or PCO371 at 30 mg kg^−1) or subcutaneously [vehicle or hPTH(1–34) at 0.9 nmol kg^−1] for 12 weeks. Ten to twelve OVX rats were assigned to each dose group. Nine rats were assigned to the sham-operated control group and were treated with vehicle for PCO371. Ten per cent DMSO (Wako Pure Chemical Industries)/10% Kolliphor EL (Sigma-Aldrich) in 10% hydroxypropyl-β-cyclodextrin (HPCD; Nihon Shokuhin Kako)/0.752% glycine (Wako Pure Chemical Industries) buffer was used as vehicle for PCO371, and phosphate-citrate buffer (pH 6.0) was used as vehicle for hPTH(1–34). To label bone-forming surfaces, tetracycline ([…], Nippon Zenyaku Kogyo) was subcutaneously injected on Day 78 and calcein (8 mg kg^−1, Dōjindo Laboratories) was subcutaneously injected on day 83. Under isoflurane anaesthesia, jugular vein blood was collected immediately before and at 1, 2, 6, 10 and 24 h after administration on day 82 to measure plasma concentration of PCO371 or on day 84 to measure serum Ca levels (o-CPC method, Wako Pure Chemical Industries). Urine was collected for 24 h from metabolic cages on days 84–85 to measure urinary collagen type 1 cross-linked C-telopeptide (CTX) by using the RatLaps ELISA System (Immunodiagnostic Systems). Under isoflurane anaesthesia, blood was collected on day 85 from the abdominal aorta to measure serum osteocalcin level by using the Rat Osteocalcin ELISA System (GE Healthcare). The lumbar spine and bilateral femurs were excised after 12 weeks of treatment. The first lumbar vertebra (L1), 3rd to 5th lumbar vertebrae (L3–L5), the right femur, and the right tibia were preserved in 70% ethanol to measure bone histomorphometry and BMD (DCS-600EX; Hitachi Aloka Medical). Measurement of bone histomorphometry was performed by the Ito Bone Histomorphometry Institute (Niigata, Japan). The second lumbar vertebra (L2) was wrapped in saline-soaked gauze and stored at −80 °C until measurement. Ultimate compressive strength (N) of the L2 vertebra was measured by using a mechanical testing machine (TK-252C; Muromachi Kikai).
# [2] = molecular target: T1, hPTHR1 (Homo sapiens, UniProt Q03431); test: cAMP production assay in COS-7 cells expressing hPTHR1; format: cell-based; conditions: COS-7 cells expressing hPTHR1, 20 min
# T1 construct: similar to that of cells expressing full-length hPTHR1; expressed in transfected cells; host or cells: COS-7 (transient, FuGENE HD)
# T1 sequence (Q03431 27-593 E93Y/D94P/K95Y/E96D/A97V/T99D/G100Y/S101A): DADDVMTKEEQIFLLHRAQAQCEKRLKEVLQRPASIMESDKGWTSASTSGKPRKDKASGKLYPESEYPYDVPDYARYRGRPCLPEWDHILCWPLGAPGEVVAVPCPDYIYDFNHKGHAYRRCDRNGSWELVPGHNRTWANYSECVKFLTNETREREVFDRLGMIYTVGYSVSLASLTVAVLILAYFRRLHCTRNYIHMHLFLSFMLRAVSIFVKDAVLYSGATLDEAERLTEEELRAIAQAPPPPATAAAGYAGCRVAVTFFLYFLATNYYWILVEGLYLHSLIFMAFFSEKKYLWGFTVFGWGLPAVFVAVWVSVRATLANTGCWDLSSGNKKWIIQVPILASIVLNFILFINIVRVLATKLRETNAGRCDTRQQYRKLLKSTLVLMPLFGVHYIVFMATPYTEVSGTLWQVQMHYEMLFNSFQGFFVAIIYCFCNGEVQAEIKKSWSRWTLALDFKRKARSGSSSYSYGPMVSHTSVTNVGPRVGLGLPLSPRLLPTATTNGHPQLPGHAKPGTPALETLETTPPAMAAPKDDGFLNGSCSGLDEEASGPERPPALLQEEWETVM
# Method: COS-7 cells (ATCC) were seeded into a 96-well flat-bottomed plate (1.4 × 10^4 cells per 100 μl per well) and incubated overnight. The next day, the COS-7 cells were transfected by adding 10 μl of a mixture of hPTHR1, hPTHR2 or mutant hPTHR1 plasmid, rat PTHR1 or rat PTHR2 plasmid, or empty vector (0.1 μg per well), FuGENE HD Transfection Reagent (0.4 μl per well, Promega), and Opti-MEM I Reduced Serum Medium (10 μl per well, Life Technologies) to each well. […] The plate was placed in a 37 °C constant-temperature water bath for 20 min to allow the reaction to proceed. After incubation, the liquid in the wells was discarded, the wells were washed with the assay medium (100 μl per well), and the plate was frozen on dry ice. Next, 40 μl of 50 mmol l^−1 HCl was added to each well, and the plate was stored in a freezer set at ≤−20 °C. The cAMP concentrations were measured by using a cAMP EIA kit (GE Healthcare). EC50 values were determined from three independent experiments in duplicate by a non-linear regression Emax model (JMP ver.9.0.2, SAS Institute). The geometric mean of the EC50 values obtained in three experiments in duplicate was calculated using Microsoft Office Excel 2007. […]
# [3] = daily oral 30 mg kg^−1, 12 weeks
structure (smiles),measurement,setting,value
"Cc1cc(N2C(=O)NC(=O)C2(C)C)cc(C)c1CCS(=O)(=O)N1CCC2(CC1)N=C(c1ccc(OC(F)(F)F)cc1)NC2=O [PCO371, 1-{3,5-dimethyl-4-[2-({4-oxo-2-[4-(trifluoromethoxy)phenyl]-1,3,8-triazaspiro[4.5]dec-1-en-8-yl}sulfonyl)ethyl]phenyl}-5,5-dimethylimidazolidine-2,4-dione]",BMD or bone strength in the lumbar spine,"[1]; daily intravenous 3 mg kg^−1, 12 weeks",did not affect
same,BMD in the proximal femur,[1]; [3],partially increased
same,BMD in total femur,[1]; [3],not in total femur
same,BMD or bone strength in the lumbar spine,[1]; [3],did not affect
same,serum Ca,"[1]; day 84, all treated rats",within the normal range
same,serum osteocalcin and urinary CTX/creatinine,"[1]; intravenous 10 mg kg^−1, 12 weeks",significant increase
same,BMD and bone strength in the lumbar vertebrae,"[1]; once-daily intravenous 10 mg kg^−1, 12 weeks, vs vehicle",significant increase
same,serum osteocalcin and urinary CTX/creatinine,"[1]; oral 30 mg kg^−1, 12 weeks",significant increase
same,EC50,[2],2400 nM
